Biological target: human plasma kallikrein (Homo sapiens (Human), UniProt P03952)
Experiment: In vitro enzyme inhibition of human plasma kallikrein (PFR-AMC cleavage)
Type: biochemical
Details: Pro-Phe-Arg-AMC substrate, 37° C., read-out: hPK IC50
Experimental: The ability of the compounds disclosed herein to inhibit human plasma kallikrein activity was quantified according to the procedures below.
A 10 mM solution of the test compound was made in DMSO. […] A control tube containing only DMSO is included. 16 μL of each compound test solution was combined with 384 μL of assay buffer (50 mM Tris-HCl pH 7.5, 150 mM NaCl, 0.01% Triton X-100) to yield a “4× test compound buffer stock”.
These solutions are hereby referred to as 4× hPK and 2×PFR-AMC, respectively.
50 μL was removed from this mixture and placed into duplicate wells on a Microfluor 1Black U-bottom microtiter plate (Thermo Scientific). This plate was incubated for 5 minutes at 37° C. To each well, 50 μL of pre-warmed 2×PFR-AMC was added to start the enzymatic reaction. Cleavage of PFR-AMC was monitored in a Biotek Synergy H4 reader set at 37° C. Readings are taken every 43 seconds for 1 hour. […] The IC50 is calculated using the Gen5 (Biotek Instruments).
The ability of the compounds in Table 3 to inhibit human plasma kallikrein activity was determined.

Sequence of human plasma kallikrein (P03952 391-638): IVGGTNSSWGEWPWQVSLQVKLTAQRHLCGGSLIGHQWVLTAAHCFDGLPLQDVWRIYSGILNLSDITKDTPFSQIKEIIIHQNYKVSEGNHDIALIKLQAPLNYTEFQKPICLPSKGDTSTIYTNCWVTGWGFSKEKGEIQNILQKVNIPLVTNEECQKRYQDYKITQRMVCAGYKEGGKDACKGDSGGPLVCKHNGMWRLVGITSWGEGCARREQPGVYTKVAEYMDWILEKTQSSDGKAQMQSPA
Sequence of human plasma kallikrein (P03952 20-390 partner): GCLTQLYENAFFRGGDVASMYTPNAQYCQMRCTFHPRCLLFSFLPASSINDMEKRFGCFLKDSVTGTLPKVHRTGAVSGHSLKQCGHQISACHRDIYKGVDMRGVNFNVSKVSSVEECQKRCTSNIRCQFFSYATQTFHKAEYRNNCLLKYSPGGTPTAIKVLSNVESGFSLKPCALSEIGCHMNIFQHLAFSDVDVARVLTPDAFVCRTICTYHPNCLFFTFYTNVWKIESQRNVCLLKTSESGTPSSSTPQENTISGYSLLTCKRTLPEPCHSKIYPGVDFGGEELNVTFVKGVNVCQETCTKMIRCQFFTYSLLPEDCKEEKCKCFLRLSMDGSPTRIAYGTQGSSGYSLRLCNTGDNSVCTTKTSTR

Structure (SMILES) | IC50 [nM]
CC1=CC2C=NN(Cc3cc(C(=O)NCc4c(C)cc(N)nc4C)ccn3)C2C=C1 (centres unmarked) [Example 201, N-((6-amino-2,4-dimethylpyridin-3-yl)methyl)-2-((5-methyl-3a,7a-dihydro-1H-indazol-1-yl)methyl)isonicotinamide] | < 100
Cc1cc(N)nc(C)c1CNC(=O)c1ccnc(Cn2ncc3cc(Cl)cnc32)c1 [Example 202, N-((6-amino-2,4-dimethylpyridin-3-yl)methyl)-2-((5-chloro-1H-pyrazolo[3,4-b]pyridin-1-yl)methyl)isonicotinamide] | 100 to 1000
Cc1cc(N)nc(C)c1CNC(=O)c1ccnc(Cn2cc3cc(Cl)cnc3n2)c1 [Example 203, N-((6-amino-2,4-dimethylpyridin-3-yl)methyl)-2-((5-chloro-2H-pyrazolo[3,4-b]pyridin-2-yl)methyl)isonicotinamide] | 100 to 1000
Cc1nc(N)ccc1CNC(=O)c1ccnc(Cc2cnc3ncc(Cl)cc3c2)c1 [Example 205, N-((6-amino-2-methylpyridin-3-yl)methyl)-2-((6-chloro-1,8-naphthyridin-3-yl)methyl)isonicotinamide] | < 100
O=C(NCc1ccc2ncc(Cl)cn12)c1ccnc(Cc2ccc3ncc(Cl)cc3c2)c1 [Example 206, N-((3-chloropyrrolo[1,2-a]pyrimidin-6-yl)methyl)-2-((3-chloroquinolin-6-yl)methyl)isonicotinamide] | > 10000
Cc1cc(N)nc(C)c1CNC(=O)c1cc(C#N)nc(Cc2ccc3ncc(Cl)cc3c2)c1 [Example 207, N-((6-amino-2,4-dimethylpyridin-3-yl)methyl)-2-((3-chloroquinolin-6-yl)methyl)-6-cyanoisonicotinamide] | < 100
Cc1nc(N)ccc1CNC(=O)c1cc(Cc2cnc3ncc(Cl)cc3c2)ncc1C#N [Example 216, N-((6-amino-2-methylpyridin-3-yl)methyl)-2-((6-chloro-1,8-naphthyridin-3-yl)methyl)-5-cyanoisonicotinamide] | 100 to 1000
COCCNc1ccc(CNC(=O)c2ccnc(Cc3ccc4ncc(Cl)cc4c3)c2)c(C)n1 [Example 242, 2-((3-chloroquinolin-6-yl)methyl)-N-((6-((2-methoxyethyl)amino)-2-methylpyridin-3-yl)methyl)isonicotinamide] | 100 to 1000

Results, then the molecule that gave them:

IC50 [nM] | Structure (SMILES)
< 100 | Cc1nc(N)ccc1CNC(=O)c1ccnc(Cc2cc(N)c3ncc(Cl)cc3c2)c1 [Example 218, N-((6-amino-2-methylpyridin-3-yl)methyl)-2-((8-amino-3-chloroquinolin-6-yl)methyl)isonicotinamide]
< 100 | Cc1nc(N)ccc1CNC(=O)c1ccnc(Cc2cnc3cc(F)c(Cl)cc3c2)c1 [Example 227, N-((6-amino-2-methylpyridin-3-yl)methyl)-2-((6-chloro-7-fluoroquinolin-3-yl)methyl)isonicotinamide]
< 100 | O=C(NCc1n[nH]c2ccc(Cl)cc12)c1ccnc(Cc2ccc3ncc(C(F)(F)F)cc3c2)c1 [Example 233, N-((5-chloro-1H-indazol-3-yl)methyl)-2-((3-(trifluoromethyl)quinolin-6-yl)methyl)isonicotinamide]
1000 to 10000 | Cc1nc(N)ccc1C(C)NC(=O)c1ccnc(Cc2ccc3ncc(Cl)cc3c2)c1 (centres unmarked) [Example 237, N-(1-(6-amino-2-methylpyridin-3-yl)ethyl)-2-((3-chloroquinolin-6-yl)methyl)isonicotinamide]
100 to 1000 | Cc1cc(N)nc(C)c1CNC(=O)c1ccnc(Cc2ccc3ncc(C(N)=O)cc3c2)c1 [Example 250, 6-((4-(((6-amino-2,4-dimethylpyridin-3-yl)methyl)carbamoyl)pyridin-2-yl)methyl)quinoline-3-carboxamide]
1000 to 10000 | Cc1nc(N)ccc1CNC(=O)c1ccnc(Cc2ccc3ncc(C(N)=O)cc3c2)c1 [Example 251, 6-((4-(((6-amino-2-methylpyridin-3-yl)methyl)carbamoyl)pyridin-2-yl)methyl)quinoline-3-carboxamide]
